Here are results for two compounds from patent US7307166B1, “Oxpurine nucleosides and their congeners, and acyl, derivatives thereof, for improvement of hematopoiesis” (Wellstat Therapeutics Corporation, priority 1987, dated 2007).

The test system of experiment [1] is interleukin-6. Briefly: LPS-induced elevation of serum interleukin-6. Type of experiment: in vivo, mouse. The settings on record: PdG 25 mg/kg i.p. As for the experimental part:
Sixty-three female Balb/C mice were randomly assigned to one of three groups. The animals in one group received a single daily dose of N^2,3′,5′-tripalmitoyldeoxyguanosine (PdG) (25 mg/kg, i.p.), while a second group received a single daily dose of the PdG treatment vehicle (control). The third group was left untreated. On the fourth day 100 μg salmonella typhimurium LPS was administered to all three groups. Serum samples were taken just prior to LPS administration (t=0) and at two, four, six, eight, ten, twelve, sixteen, and twenty hours after LPS administration. The samples were then frozen until the time of assay. Serum levels of TNF-alpha, and IFN-gamma were measured by ELISA.
PdG also attenuated LPS-induced elevation of serum interleukin-1-alpha and interleukin-6.

Experiment [2] has as its system Balb/C female mice. Nature of the experiment: Hematopoietic recovery after cyclophosphamide in mice (spleen weight, blood cell counts). The experiment is classed as in vivo, mouse.

Turning to `CCCCCCCCCCCCCCCC(=O)Nc1nc2c(ncn2[C@H]2C[C@H](OC(=O)CCCCCCCCCCCCCCC)[C@@H](COC(=O)CCCCCCCCCCCCCCC)O2)c(=O)[nH]1` [PdG, 3′,5′-O-N^2-tripalmitoyl-2′-deoxyguanosine], in experiment [1], the “LPS-induced elevation of serum interleukin-6” value is “attenuated”.

For the compound `CCCCCCCCCCCCCCCC(=O)OC[C@H]1O[C@@H](n2cnc3c(=O)[nH]c(N)nc32)[C@H](O)[C@@H]1O`, the spleen weight entry in experiment [2] (Ex 38: day 7 after CP, guanosine 5, acyl derivatives 2.5 μmoles/mouse/day in 0.2% Tween 80 i.p. 6 days, Tween 80 0.2%) is recorded as “significantly larger spleens”. In addition, in experiment [2] (Ex 41: day 7 after CP, treatment on only days 1 and 2, vs saline or Tween 80), the total neutrophils result was “significant increase”. The platelet number entry in experiment [2] (Ex 47: day 10 after CP, 2.5 μmoles/mouse/day) is reported as “significantly greater”.
